Assay results: ChEMBL document CHEMBL5344429, “1,3-Substituted β-Carboline Derivatives as Potent Chemotherapy for the Treatment of Cystic Echinococcosis” (J Med Chem, 2023)
Active and inactive are the calls of the source. The calls are words filed in the database; no cut-off is given here.

How the values were obtained:
[1] = system: Echinococcus granulosus; assay: Parasiticidal activity against Echinococcus granulosus protoscolices assessed as death rate at 1 uM incubated for 48 hrs by eosin exclusion test; type: functional
[2] = system: Echinococcus granulosus; assay: Parasiticidal activity against Echinococcus granulosus protoscolices […] by eosin exclusion test; type: functional; conditions: 1152 h, time 48 day
[3] = system: Echinococcus granulosus; assay: Parasiticidal activity against Echinococcus granulosus assessed as cyst destruction at 100 uM incubated for 4 days by scanning electron microscopy; type: functional, organism-based; conditions: time 4.0 day
[4] = system: Echinococcus granulosus; assay: Parasiticidal activity against Echinococcus granulosus protoscolices assessed as appearance of partial shedding at 5 uM incubated for 4 days by H and E staining based assay; type: functional, organism-based; conditions: time 4.0 day
[5] = system: Echinococcus granulosus; assay: Parasiticidal activity against Echinococcus granulosus protoscolices assessed as appearance of relative completion of sucker at 5 uM incubated for 2 days by scanning electron microscopy; type: functional, organism-based; conditions: time 2.0 day
[6] = system: Echinococcus granulosus; assay: Parasiticidal activity against Echinococcus granulosus microcyst infected in kunming mouse assessed as mean cyst weight at 12.5 mg/kg, ip administered for 28 days; type: functional; conditions: time 28 day
[7] = system: Echinococcus granulosus; assay: Parasiticidal activity against Echinococcus granulosus microcyst infected in kunming mouse assessed as mean cyst weight at 50 mg/kg, ip administered for 14 days; type: functional; conditions: time 14 day
[8] = system: Echinococcus granulosus; assay: Parasiticidal activity against intraperitoneal cystic Echinococcus granulosus infected in Kunming mouse assessed as decrease number of microvilli at 50 mg/kg, ip administered for 28 days by TEM analysis; type: functional, organism-based; conditions: time 28.0 day
[9] = system: Echinococcus granulosus; assay: Parasiticidal activity against intraperitoneal cystic Echinococcus granulosus infected in Kunming mouse assessed as appearance of unclear cortex at 50 mg/kg, ip administered for 28 days by TEM analysis; type: functional, organism-based; conditions: time 28.0 day
[10] = system: Echinococcus granulosus; assay: Parasiticidal activity against Echinococcus granulosus microcyst infected in kunming mouse assessed as reduction in cyst weight at 12.5 mg/kg, ip administered for 28 days relative to control; type: functional; parameters: scale not given: the % may be the effect or the level left; conditions: time 28 day
[11] = system: Echinococcus granulosus; assay: Parasiticidal activity against Echinococcus granulosus protoscolices assessed as body shrank with irregular edge at 5 uM incubated for 4 days by H and E staining based assay; type: functional, organism-based; conditions: time 4.0 day
[12] = system: Echinococcus granulosus; assay: Parasiticidal activity against Echinococcus granulosus microcyst infected in kunming mouse assessed as reduction in cyst weight at 50 mg/kg, ip administered for 14 days relative to control; type: functional; parameters: scale not given: the % may be the effect or the level left; conditions: time 14 day
[13] = system: Echinococcus granulosus; assay: Parasiticidal activity against Echinococcus granulosus microcyst infected in kunming mouse assessed as mean cyst weight at 50 mg/kg, ip administered for 28 days; type: functional; conditions: time 28 day
[14] = system: Echinococcus granulosus; assay: Parasiticidal activity against Echinococcus granulosus microcyst infected in kunming mouse assessed as reduction in cyst weight at 12.5 mg/kg, ip administered for 14 days relative to control; type: functional; parameters: scale not given: the % may be the effect or the level left; conditions: time 14 day
[15] = system: Echinococcus granulosus; assay: Parasiticidal activity against Echinococcus granulosus microcyst infected in kunming mouse assessed as reduction in cyst weight at 50 mg/kg, ip administered for 28 days relative to control; type: functional; parameters: scale not given: the % may be the effect or the level left; conditions: time 28 day
[16] = system: Echinococcus granulosus; assay: Parasiticidal activity against Echinococcus granulosus protoscolices assessed as survival rate at 1 uM incubated for 48 hrs by eosin exclusion test; type: functional
[17] = system: Echinococcus granulosus; assay: Parasiticidal activity against Echinococcus granulosus microcyst infected in kunming mouse assessed as mean cyst weight at 25 mg/kg, ip administered for 14 days; type: functional; conditions: time 14 day
[18] = system: Echinococcus granulosus; assay: Parasiticidal activity against Echinococcus granulosus microcyst infected in kunming mouse assessed as mean cyst weight at 12.5 mg/kg, ip administered for 14 days; type: functional; conditions: time 14 day
[19] = system: Echinococcus granulosus; assay: Parasiticidal activity against Echinococcus granulosus microcyst infected in kunming mouse assessed as reduction in cyst weight at 25 mg/kg, ip administered for 14 days relative to control; type: functional; parameters: scale not given: the % may be the effect or the level left; conditions: time 14 day
[20] = system: Echinococcus granulosus; assay: Parasiticidal activity against Echinococcus granulosus microcyst infected in kunming mouse assessed as reduction in cyst weight at 25 mg/kg, ip administered for 28 days relative to control; type: functional; parameters: scale not given: the % may be the effect or the level left; conditions: time 28 day
[21] = system: Echinococcus granulosus; assay: Parasiticidal activity against Echinococcus granulosus protoscolices assessed as outer skin and hooks fall off at 5 uM incubated for 2 days by scanning electron microscopy; type: functional, organism-based; conditions: time 2.0 day
[22] = system: Echinococcus granulosus; assay: Parasiticidal activity against Echinococcus granulosus microcyst infected in kunming mouse assessed as mean cyst weight at 25 mg/kg, ip administered for 28 days; type: functional; conditions: time 28 day
[23] = system: Echinococcus granulosus; assay: Parasiticidal activity against intraperitoneal cystic Echinococcus granulosus infected in Kunming mouse assessed as reduction in cell count with clear nucleolus at 50 mg/kg, ip administered for 28 days by TEM analysis; type: functional, organism-based; conditions: time 28.0 day
[24] = Neurotoxicity in Kunming mouse assessed as nuclei damage at 50 mg/kg, ip administered for 28 days by TEM analysis; type: toxicity, organism-based; conditions: in vivo, 672 h, time 28 day
[25] = Neurotoxicity in Kunming mouse assessed as loosely arranged pyramidal cells in brain at 50 mg/kg, ip administered for 28 days by H and E staining based assay; type: toxicity, organism-based; conditions: in vivo, 672 h, time 28 day
[26] = Neurotoxicity in Kunming mouse assessed as organelles damage at 50 mg/kg, ip administered for 28 days by TEM analysis; type: toxicity, organism-based; conditions: in vivo, 672 h, time 28 day
[27] = Neurotoxicity in Kunming mouse assessed as effect on hippocampal arrangement at 50 mg/kg, ip administered for 28 days by TEM analysis; type: toxicity, organism-based; conditions: in vivo, 672 h, time 28 day
[28] = Neurotoxicity in Kunming mouse assessed as deformed pyramidal cells in brain at 50 mg/kg, ip administered for 28 days by H and E staining based assay; type: toxicity, organism-based; conditions: in vivo, 672 h, time 28 day
[29] = Neurotoxicity in Kunming mouse assessed as swollen pyramidal cells in brain at 50 mg/kg, ip administered for 28 days by H and E staining based assay; type: toxicity, organism-based; conditions: in vivo, 672 h, time 28 day
[30] = Neurotoxicity in Kunming mouse assessed as effect on hippocampal structure at 50 mg/kg, ip administered for 28 days by TEM analysis; type: toxicity, organism-based; conditions: in vivo, 672 h, time 28 day
[31] = Neurotoxicity in Kunming mouse assessed as effect on heterochromatin at 50 mg/kg, ip administered for 28 days by TEM analysis; type: toxicity, organism-based; conditions: in vivo, 672 h, time 28 day

## COc1cccc(-c2nc(C(=O)Nc3ccc(CN4CCC(N5CCCCC5)CC4)cc3)cc3c2[nH]c2ccccc23)c1
[1]
  Activity: Active
[2]
  LC50: 18.1 µM

## COc1ccc(-c2nc(C(=O)Nc3ccc(CN4CCC(N5CCCCC5)CC4)cc3)cc3c2[nH]c2ccccc23)cc1
[1]
  Activity: Active
[2]
  LC50: 7.67 µM

## COc1ccccc1-c1nc(C(=O)Nc2ccc(CN3CCC(N4CCCCC4)CC3)cc2)cc2c1[nH]c1ccccc12
[1]
  Activity: Active
[2]
  LC50: 13.4 µM

## Cc1ccc(-c2nc(NC(=O)c3ccc(CN4CCC(N5CCCCC5)CC4)cc3)cc3c2[nH]c2ccccc23)cc1
[1]
  Activity: Active
[2]
  LC50: 12.5 µM

## COc1ccc(-c2nc(NC(=O)c3ccc(CN4CCCN(C)CC4)cc3)cc3c2[nH]c2ccccc23)cc1OC
[1]
  Activity: Active
[2]
  LC50: 13.2 µM

## COc1cccc(-c2nc(NC(=O)c3ccc(CN4CCCN(C)CC4)cc3)cc3c2[nH]c2ccccc23)c1
[2]
  LC50: 17.9 µM

## CCCSc1ccc2[nH]c(NC(=O)OC)nc2c1 [ALBENDAZOLE]
[3]
  Activity: inactive
[4]
  Activity: Active
[5]
  Activity: Active
[2]
  LC50: 154 µM
[6]
  Activity: 26.7 mg
[7]
  Activity: 23.3 mg
[8]
  Activity: Active
[9]
  Activity: Active
[10]
  Activity: 50.9%
[11]
  Activity: Active
[12]
  Activity: 54.7%
[13]
  Activity: 24.2 mg
[14]
  Activity: 42.77%
[15]
  Activity: 55.4%
[16]
  Activity: 100%
[17]
  Activity: 26.2 mg
[18]
  Activity: 29.5 mg
[19]
  Activity: 49.16%
[20]
  Activity: 53.45%
[21]
  Activity: Active
[22]
  Activity: 25.3 mg
[23]
  Activity: Active

## CCCSc1ccc2nc(NC(=O)OC)[nH]c2c1 [ALBENDAZOLE]
[24]
  Activity: Non-Toxic
[25]
  Activity: Non-Toxic
[26]
  Activity: Non-Toxic
[27]
  Activity: Non-Toxic
[28]
  Activity: Non-Toxic
[29]
  Activity: Non-Toxic
[30]
  Activity: Non-Toxic
[31]
  Activity: Non-Toxic
